ChEMBL document CHEMBL1155102, “Synthesis of all stereoisomers of KRN7000, the CD1d-binding NKT cell ligand” (Bioorg Med Chem Lett, 2008)
Calls of active or inactive are those of the source. No cut-off for these calls is given here.

Tests used:
Type in all cases: functional, cell-based
iNKT [1] = assay: Induction of IL4 production in mouse iNKT cells
iNKT [2] = assay: Induction of IFN-gamma production in human iNKT cells
iNKT [3] = assay: Induction of IL13 production in human iNKT cells
iNKT [4] = assay: Induction of proliferation in mouse iNKT cells
iNKT [5] = assay: Induction of IL4 production in human iNKT cells
iNKT [6] = assay: Induction of IL4/IL13 production in mouse iNKT cells
iNKT [7] = assay: Induction of IFN-gamma production in mouse iNKT cells

SMILES | Activity (iNKT [1]) | Activity (iNKT [2]) | Activity (iNKT [3]) | Activity (iNKT [4]) | Activity (iNKT [5]) | Activity (iNKT [6]) | Activity (iNKT [7])
CCCCCCCCCCCCCCCCCCCCCCCCCC(=O)N[C@@H](CO[C@H]1O[C@H](CO)[C@H](O)[C@H](O)[C@H]1O)[C@@H](O)[C@H](O)CCCCCCCCCCCCCC | Active | Active | Active | Active | Active |  | 
CCCCCCCCCCCCCCCCCCCCCCCCCC(=O)N[C@H](CO[C@H]1O[C@H](CO)[C@H](O)[C@H](O)[C@H]1O)[C@@H](O)[C@H](O)CCCCCCCCCCCCCC | Active |  |  |  |  |  | 
CCCCCCCCCCCCCCCCCCCCCCCCCC(=O)N[C@@H](CO[C@H]1O[C@H](CO)[C@H](O)[C@H](O)[C@H]1O)[C@@H](O)[C@@H](O)CCCCCCCCCCCCCC | Active | Active | Active |  | Active |  | 
CCCCCCCCCCCCCCCCCCCCCCCCCC(=O)N[C@H](CO[C@H]1O[C@H](CO)[C@H](O)[C@H](O)[C@H]1O)[C@H](O)[C@H](O)CCCCCCCCCCCCCC |  | inactive |  |  | inactive |  | 
CCCCCCCCCCCCCCCCCCCCCCCCCC(=O)N[C@@H](CO[C@H]1O[C@H](CO)[C@H](O)[C@H](O)[C@H]1O)[C@H](O)[C@H](O)CCCCCCCCCCCCCC |  | Active | Active | Active | Active | Active | Active
CCCCCCCCCCCCCCCCCCCCCCCCCC(=O)N[C@@H](CO[C@H]1O[C@H](CO)[C@H](O)[C@H](O)[C@H]1O)[C@H](O)[C@@H](O)CCCCCCCCCCCCCC |  | Active | Active | Active | Active | Active | Active
CCCCCCCCCCCCCCCCCCCCCCCCCC(=O)N[C@H](CO[C@H]1O[C@H](CO)[C@H](O)[C@H](O)[C@H]1O)[C@@H](O)[C@@H](O)CCCCCCCCCCCCCC |  |  |  | Active |  |  | 
